Assay results taken from publication PMC7995890, “Inhibition of Phosphodiesterase 5 Promotes the Aromatase-Mediated Estrogen Biosynthesis in Osteoblastic Cells by Activation of cGMP/PKG/SHP2 Pathway” (Frontiers in Endocrinology, 2021).

Biological target: PDE5A (Homo sapiens, UniProt O76074)
Experiment: PDE-Glo assay with purified recombinant human PDE5A; supported by cellular thermal shift assay in HEK293T lysate
Assay type: biochemical

## COc1ccc(-c2oc3c(CC=C(C)C)c(OCc4ccccc4)cc(O)c3c(=O)c2O)cc1 [compound 14, 7-O-benzylicaritin]
  IC50: 9.91 µM
